PMC11505650, “Chemical and Biological Characterization of Metabolites from Silene viridiflora Using Mass Spectrometric and Cell-Based Assays” (Biomolecules, 2024)

Columns and labels:
BT-20 cells = assay: MTT cytotoxicity assay, BT-20 cells, 72 h; format: cell-based, human; details: MTT test, 72 h exposure
Description: (§1) The cytotoxic activity of the samples was screened against the human triple-negative breast cancer BT-20 (HTB-19), HCC1395 (ATCC®CRL-2324), MDA-MB-231 (CRM-HTB-26), and HEK293 (CRL-1573) embryonic kidney cell lines. The cells were cultured in Dulbecco’s modified eagle medium (DMEM) supplemented with 4.5 g/L glutamine and D-glucose, 10% fetal bovine serum (FBS), and a 1% penicillin/streptomycin mixture and incubated at 37 °C under a 5% CO2 humidified atmosphere. Cell passage and seeding performed after washing the adherent cells with PBS and detaching them using a Trypsin solution. The cells were detached and resuspended at 160,000 cells/mL and added into each well of a transparent 384-well plate in the final volume of 25 µL/well (4000 cells per well). The cells were maintained in DMEM containing 10% FBS at 37°C and 5% CO2 overnight. The next day, the 384-well plate was examined under an inverted microscope to identify cell seeding errors, growth characteristics, morphology and equal distribution. Then, the medium in each well was removed using a washer–dispenser (Biotek FX, Beersel, Belgium) and replaced by 40 μL of the fresh medium containing the indicated concentrations of compounds and incubated for 72 h.
(§2) The 250 µg/mL concentrations of methanol extract and 20 mM concentrations of individual compounds were prepared as a stock solution in DMSO (Sigma-Aldrich Chemie GmbH, Taufkirchen, Germany) prior to use. A complete medium was used to prepare this solution. The samples were further serially diluted in DMSO into eleven different concentrations and then added to the complete cell culture medium so as to attain the final concentrations ranging from 250 to 8.6 µg/mL (250, 178.6, 127.6, 91.1, 65.1, 46.5, 33.2, 23.7, 16.9, 12.1, and 8.6 µg/mL) for the extract and 20 to 1.45 µM (20, 15.4, 11.8, 9.1, 7.0, 5.4, 4.1, 3.2, 2.5, 1.9, and 1.5 µM) for the individual compounds in 384-well plates, which were added in four replicates. A 40 µL sample containing medium from each concentration was dispensed into each well. The concentration of the solvent, DMSO, was equal in all the wells and was fixed at 0.05% in the medium. As a negative control, cells were treated with DMEM containing DMSO. Docetaxel (concentration of 0.02 µM to 6.9 nM) is used as a positive control.
(§3) The cytotoxicity of the samples was determined in triplicate using the 3-(4,5-dimethylthiazol-2-yl)-2,5-diphenyltetrazolium bromide (MTT) cell viability assay. The next day, the medium of the 384-well plates treated with samples was removed. Then, 25 µL of MTT solution (0.5 mg MTT in 1 mL PBS) was added to each well and incubated at 37 °C for 2 h. After incubation with MTT for 2 h, the solution was removed from the wells by the washer–dispenser, and the formed formazan crystals were then dissolved in 25 µL of DMSO. After a further 10 min of incubation at room temperature, the samples were mixed briefly, and the absorbance was detected at 510 nm with a Tecan Infinite 200 Pro Reader (Tecan Group Ltd., Männedorf, Switzerland). The cell viability rate (%) was calculated by the following formula:Cell viability rate (%) = ((OD of treated cells − OD of media (blank)/(OD of control cells − OD of media (blank)) × 100%
(§4) The experiments were carried out in four replicates. Continuous variables were presented as the mean ± SD. […] The level of significance was set at p < 0.05. The IC50 (inhibitory concentration which caused 50% inhibition) was estimated using the linear regression method of plots of the percent of cell viability against the concentration of the tested compounds using GraphPad Prism 8.0.1 software (San Diego, CA, USA).

MDA-MB-231 cells = assay: MTT cytotoxicity assay, MDA-MB-231 cells, 72 h; format: cell-based, human; details: MTT test, 72 h exposure
Description: as §1, §2, §3, §4

HCC1395 cells = assay: MTT cytotoxicity assay, HCC1395 cells, 72 h; format: cell-based, human; details: MTT test, 72 h exposure
Description: as §1, §2, §3, §4

HEK293 cells = assay: MTT cytotoxicity assay, HEK293 embryonic kidney cells, 72 h; format: cell-based, human; details: MTT test, 72 h exposure
[1] = system: MCF-7, MDA-MB-231, and MDA-MB-468 cells; design: method as in PMID 33192507; details: breast cancer cells; cited from earlier work
Wnt signaling = assay: TOPFlash assay (Wnt3a-stimulated BT-20 reporter cells); format: cell-based, human; details: BT-20 cells, 20 µM (extract 20 μg/mL)
Description: The TOPFlash assay was performed as described. TNBC BT-20 cell line stably transfected with TopFlash reporter plasmid was seeded at 450,000 cells/mL in a white opaque 384-well plate in the final volume of 25 μL. The cells were maintained and incubated at 37 °C with 5% CO2 overnight for attachment. Subsequently, they were transfected by a plasmid encoding Renilla luciferase under the CMV promoter using 12 μg/mL of DNA and 40 μL/mL XtremeGENE 9 reagent as described in the manufacturer’s protocol. The next day, the medium in each well was replaced with a 20 μL fresh medium containing Wnt3a (2.5 μg/mL) and compound dilution. Compound dilutions were prepared by serial dilution in DMSO and diluted with the amount of medium necessary to obtain their final concentrations indicated on the figures and tables and maintain a concentration of DMSO of 0.05% in all assay points. Wnt3a was added after 1 h of preincubation with compound dilution. After overnight incubation, the supernatant in each well was removed by the washer–dispenser, and the luciferase activity was measured as described. […] Next, the luciferase activity of the firefly and Renilla luciferases was detected sequentially in individual wells of a 384-well plate through the injection of corresponding measurement solutions in Tecan Infinite 200 Pro multifunctional plate reader with an injection module.

[2] = Homo sapiens, BT-20, average ± SEM, N = 3
[3] = Homo sapiens, MDA-MB-231, average ± SEM, N = 3
[4] = Homo sapiens, HCC1395, average ± SEM, N = 3
[5] = Homo sapiens, HEK293, average ± SEM, N = 3

| Structure (SMILES) | IC50 (BT-20 cells; [2]) [µM] | IC50 (MDA-MB-231 cells; [3]) [µM] | IC50 (HCC1395 cells; [4]) [µM] | IC50 (HEK293 cells; [5]) [µM] | further results |
| --- | --- | --- | --- | --- | --- |
| CC(C)(O)CC[C@@H](O)[C@](C)(O)[C@H]1CC[C@@]2(O)C3=CC(=O)[C@@H]4C[C@@H](O)[C@@H](O)C[C@]4(C)[C@H]3CC[C@]12C [Compound 50, 20-Hydroxyecdysone] | > 20 | > 20 | > 20 | > 20 | Concentration range in which autophagy induction / synergistic effect with doxorubicin was observed [1]: 250 to 750 µM |
| C[C@@H]1C(=O)O[C@H](C)[C@H]1C[C@@H](O)[C@](C)(O)[C@H]1CC[C@@]2(O)C3=CC(=O)[C@@H]4C[C@@H](O)[C@@H](O)C[C@]4(C)[C@H]3CC[C@]12C [Compound 76, Cyasterone] | > 20 | > 20 | > 20 | > 20 |  |
| C[C@H]([C@H](O)CCC(C)(C)O)[C@H]1CC[C@@]2(O)C3=CC(=O)[C@@H]4C[C@@H](O)[C@@H](O)C[C@]4(C)[C@H]3CC[C@]12C [Compound 73, Ecdysone] | > 20 | > 20 | > 20 | > 20 |  |
| O=C(O)[C@]1(O)C[C@@H](O)[C@@H](O)[C@H](O)C1 [Compound 12, Quinic acid] | > 20 | > 20 | > 20 | > 20 |  |
| O=C(O)C=Cc1ccc(O)cc1 [Compound 21, p-Coumaric acid] | > 20 | > 20 | > 20 | > 20 |  |
| CC(=O)OC(C)(C)CC[C@@H](O)[C@](C)(O)[C@H]1CC[C@@]2(O)C3=CC(=O)[C@@H]4C[C@@H](O)[C@@H](O)C[C@]4(C)[C@H]3CC[C@]12C [Compound 74, Viticosterone E] | > 20 | > 20 | > 20 | > 20 |  |
| CC(=O)O[C@@]12CO[C@@H]1C[C@H](O)[C@@]1(C)C(=O)[C@H](O)C3=C(C)[C@@H](OC(=O)[C@H](O)[C@@H](NC(=O)OC(C)(C)C)c4ccccc4)C[C@@](O)([C@@H](OC(=O)c4ccccc4)[C@H]21)C3(C)C [Docetaxel, reference compound] |  |  |  |  | IC50 (BT-20 cells; Homo sapiens, BT-20, positive control): 0.0044 ± 8e-07 µM; IC50 (MDA-MB-231 cells; Homo sapiens, MDA-MB-231, positive control): 0.0177 ± 2.9e-06 µM; IC50 (HCC1395 cells; Homo sapiens, HCC1395, positive control): 0.0065 ± 7e-07 µM; IC50 (HEK293 cells; Homo sapiens, HEK293, positive control): 0.00447 ± 1.3e-06 µM |
| COc1cc(/C=C/C(=O)O)ccc1O [Compound 19, Ferulic acid] |  |  |  |  | IC50 (BT-20 cells; average ± SEM, N = 3): > 20 µM; IC50 (MDA-MB-231 cells; average ± SEM, N = 3): > 20 µM; IC50 (HCC1395 cells; average ± SEM, N = 3): > 20 µM; IC50 (HEK293 cells; average ± SEM, N = 3): > 20 µM |
| CC1(C)CC[C@]2(C(=O)O)CC[C@]3(C)C(=CC[C@@H]4[C@@]5(C)CC[C@H](O)C(C)(C)[C@@H]5CC[C@]43C)[C@@H]2C1 [Compound 71, Oleanolic acid] | > 20 | > 20 | > 20 | > 20 |  |
| O=c1cc(-c2ccc(O)cc2)oc2c([C@@H]3OC[C@H](O)[C@H](O)[C@H]3O)c(O)c([C@@H]3O[C@H](CO)[C@@H](O)[C@H](O)[C@H]3O)c(O)c12 [Compound 29, Schaftoside (apigenin 6-C-β-D -glucoside-8-C-α-L-arabinoside)] | > 20 | > 20 | > 20 | > 20 |  |
| CC(C)(O)CC[C@@H](O)[C@](C)(O)[C@H]1CC[C@@]2(O)C3=CC(=O)[C@@H]4C[C@@H](O)CC[C@]4(C)[C@H]3CC[C@]12C [Compound 58, 2-Deoxy-20-hydroxyecdysone] | 0.12 ± 0.006 | 0.53 ± 0.14 | 0.21 ± 0.01 | 0.27 ± 0.01 | Inhibition of Wnt signaling (Wnt signaling): not a Wnt signaling inhibitor |
| CC(C)(O)CC[C@@H](O)[C@](C)(O)[C@H]1CC[C@@]2(O)C3=CC(=O)[C@@H]4C[C@@H](O)[C@@H](O)C[C@]4(C)[C@H]3[C@H](O)C[C@]12C [Compound 75, Turkesterone] | > 20 | > 20 | > 20 | > 20 |  |
| O=c1cc(-c2ccc(O)cc2)oc2cc(O[C@@H]3O[C@H](CO)[C@@H](O)[C@H](O)[C@H]3O)c([C@@H]3O[C@H](CO)[C@@H](O)[C@H](O)[C@H]3O)c(O)c12 [Compound 38, Saponarin (isovitexin 7-O-β-D-glucoside)] |  |  |  |  | IC50 (BT-20 cells; average ± SEM, N = 3): > 20 µM; IC50 (MDA-MB-231 cells; average ± SEM, N = 3): > 20 µM; IC50 (HCC1395 cells; average ± SEM, N = 3): > 20 µM; IC50 (HEK293 cells; average ± SEM, N = 3): > 20 µM |
| C[C@H]([C@H](O)CCC(C)(C)O)[C@H]1CC[C@@]2(O)C3=CC(=O)[C@@H]4C[C@@H](O)CC[C@]4(C)[C@H]3CC[C@]12C [Compound 72, 2-Deoxyecdysone] | > 20 | > 20 | > 20 | > 20 |  |
| C[C@@H]1O[C@@H](OC[C@H]2O[C@@H](Oc3c(-c4ccc(O)c(O)c4)oc4cc(O)cc(O)c4c3=O)[C@H](O)[C@@H](O)[C@@H]2O)[C@H](O)[C@H](O)[C@H]1O [Compound 41, Rutin (quercetin-3-O-rutinoside)] | > 20 | > 20 | > 20 | > 20 |  |
